For one data set, the system named is NCI-H358 (K-Ras G12C). Nature of the data set: CellTiter-Glo cell viability assay, NCI-H358. In kind it is cell-based, human. As to conditions: Homo sapiens, NCI-H358, 120 h, 5-day treatment; read-out: H358 Cell Viability assay data (K-Ras G12C, IC50). The procedure, abridged: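 Five-day compound treatment of NCI-H358 cells, then CellTiter-Glo luminescence, percent of DMSO, four-parameter logistic fit.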
(In general: In ATP-based viability assays light output follows the ATP content of the culture.)

Data set [1] addresses NRAS Q61K binding to BRAF RBD (Homo sapiens (Human), UniProt P01111+P62937, Q61K). Kind of data set: Ras-Raf disruption/FRET/MOA assay, NRAS Q61K. The format is biochemical. The text has this: (§1) Disruption of B-Raf Ras-binding Domain (BRAF^RBD) Interaction with K-Ras by Compounds of the Invention (also called a FRET assay or an MOA assay)
(§2) Note—The following protocol describes a procedure for monitoring disruption of K-Ras G12C(GMP-PNP) binding to BRAF^RBD by a compound of the invention. This protocol may also be executed substituting other Ras proteins or nucleotides.
(§3) The purpose of this biochemical assay was to measure the ability of test compounds to facilitate ternary complex formation between a nucleotide-loaded K-Ras isoform and Cyclophilin A; the resulting ternary complex disrupts binding to a BRAF^RBD construct, inhibiting K-Ras signaling through a RAF effector. Data is reported as IC50 values.
(§4) In assay buffer containing 25 mM HEPES pH 7.3, 0.002% Tween20, 0.1% BSA, 100 mM NaCl and 5 mM MgCl2, tagless Cyclophilin A, His6-K-Ras-GMPPNP, and GST-BRAF^RBD were combined in a 384-well assay plate at final concentrations of 25 μM, 12.5 nM and 50 nM, respectively. Compound was present in plate wells as a 10-point 3-fold dilution series starting at a final concentration of 30 μM. After incubation at 25° C. for 3 hours, a mixture of Anti-His Eu—W1024 and anti-GST allophycocyanin was then added to assay sample wells at final concentrations of 10 nM and 50 nM, respectively, and the reaction incubated for an additional 1.5 hours. […] Compounds that facilitate disruption of a K-Ras: RAF complex were identified as those eliciting a decrease in the TR-FRET ratio relative to DMSO control wells.

For data set [2], the target named is KRAS Q61H binding to BRAF RBD (Homo sapiens (Human), UniProt P01116+P62937, Q61H). Nature of the data set: Ras-Raf disruption/FRET/MOA assay, KRAS Q61H. The format is biochemical.
KRAS Q61H binding to BRAF RBD, sequence (P01116 other isoform, or with tags, fused parts or gaps Q61H): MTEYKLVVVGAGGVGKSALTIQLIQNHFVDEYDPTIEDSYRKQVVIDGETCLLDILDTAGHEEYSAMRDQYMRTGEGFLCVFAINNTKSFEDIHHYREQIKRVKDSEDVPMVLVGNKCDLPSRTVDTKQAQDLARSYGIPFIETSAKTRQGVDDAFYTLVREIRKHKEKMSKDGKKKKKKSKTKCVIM
KRAS Q61H binding to BRAF RBD, sequence (P62937 whole entry): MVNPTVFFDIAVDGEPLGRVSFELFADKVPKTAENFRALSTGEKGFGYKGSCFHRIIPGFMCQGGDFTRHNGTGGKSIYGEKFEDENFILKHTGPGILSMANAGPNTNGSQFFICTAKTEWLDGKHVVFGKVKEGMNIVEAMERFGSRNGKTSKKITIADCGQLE
From the text: as §1, §2, §3, §4

The target of data set [3] is NRAS G12C binding to BRAF RBD (Homo sapiens (Human), UniProt P01111+P62937, G12C). Nature of the data set: Ras-Raf disruption/FRET/MOA assay, NRAS G12C. The format is biochemical.
NRAS G12C binding to BRAF RBD, sequence (P01111 whole entry G12C): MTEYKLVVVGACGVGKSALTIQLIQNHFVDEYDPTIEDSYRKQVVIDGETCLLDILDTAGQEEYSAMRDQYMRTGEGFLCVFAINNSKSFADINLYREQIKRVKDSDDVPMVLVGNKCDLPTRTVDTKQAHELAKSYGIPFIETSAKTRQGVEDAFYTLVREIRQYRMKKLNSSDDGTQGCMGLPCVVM
NRAS G12C binding to BRAF RBD, sequence (P62937 whole entry): as the sequence (P62937 whole entry) above
From the text: as §2, §3
(§5) Compound was present in plate wells as a 10-point 3-fold dilution series starting at a final concentration of 30 μM. After incubation at 25° C. for 3 hours, a mixture of Anti-His Eu—W1024 and anti-GST allophycocyanin was then added to assay sample wells at final concentrations of 10 nM and 50 nM, respectively, and the reaction incubated for an additional 1.5 hours. […] Compounds that facilitate disruption of a K-Ras: RAF complex were identified as those eliciting a decrease in the TR-FRET ratio relative to DMSO control wells.

The target of data set [4] is KRAS G13D binding to BRAF RBD (Homo sapiens (Human), UniProt P01116+P62937, G13D). Nature of the data set: Ras-Raf disruption/FRET/MOA assay, KRAS G13D. In kind it is biochemical.
KRAS G13D binding to BRAF RBD, sequence (P01116 other isoform, or with tags, fused parts or gaps G13D): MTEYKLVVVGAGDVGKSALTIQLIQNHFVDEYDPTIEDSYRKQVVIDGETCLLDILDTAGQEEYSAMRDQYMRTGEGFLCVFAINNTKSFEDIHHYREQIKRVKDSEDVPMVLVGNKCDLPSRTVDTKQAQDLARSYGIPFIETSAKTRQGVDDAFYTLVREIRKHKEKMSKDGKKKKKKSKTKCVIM
KRAS G13D binding to BRAF RBD, sequence (P62937 whole entry): as the sequence (P62937 whole entry) above
From the text: as §2, §3, §5

The test system of data set [5] is K-Ras G12C (NCI-H358 cells). Nature of the data set: Potency assay: pERK in NCI-H358 cells. In kind it is cell-based, human. Conditions: Homo sapiens; NCI-H358 cells, 4 hours; read-out: pERK EC50 (H358 KRAS G12C). The procedure, abridged:
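Cells plated the day before were exposed for 4 h at 37° C, 5% CO2 to a 10-point, 3-fold DMSO dilution series (10 mM top stock), in duplicate. Phospho-ERK was read by AlphaLISA SureFire Ultra or by In-Cell Western with DRAQ5 DNA stain, and IC50 came from a 4-parameter sigmoidal fit.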

Data set [6] has as its target NRAS WT binding to BRAF RBD (Homo sapiens (Human), UniProt P01111+P62937). Kind of data set: Ras-Raf disruption/FRET/MOA assay, NRAS WT. In kind it is biochemical.
From the text: as §1, §2, §3, §4

Data set [7] addresses NRAS Q61R binding to BRAF RBD (Homo sapiens (Human), UniProt P01111+P62937, Q61R). Kind of data set: Ras-Raf disruption/FRET/MOA assay, NRAS Q61R. The format is biochemical.
From the text: as §1, §2, §3, §4

The target of data set [8] is K-Ras G12C(GMP-PNP) binding to BRAF RBD (Homo sapiens (Human), UniProt P01116+P62937, G12C). Kind of data set: Disruption of BRAF RBD interaction with K-Ras (FRET / MOA assay), K-Ras G12C. The format is biochemical. Conditions: read-out: KRAS G12C FRET IC50. The procedure, abridged:
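Incubation of compound (up to 30 μM final, 3-fold steps) with GMP-PNP-type loaded Ras isoform, cyclophilin A and BRAF RBD ran 3 h at 25° C, followed by 1.5 h with detection antibodies. Disruption appears as a reduced TR-FRET ratio compared with DMSO controls, expressed as IC50.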

For data set [9] the following is noted: 18-membered ring.

Read-outs that look alike come from different tables or passages of the source.

NRAS Q61K binding to BRAF RBD, sequence (P01111 whole entry Q61K, the tested form may be a part): as the sequence (P01111 whole entry G12C) above, with C12G, Q61K counted along it
NRAS Q61K binding to BRAF RBD, sequence (P62937 whole entry, the tested form may be a part): as the sequence (P62937 whole entry) above
NRAS WT binding to BRAF RBD, sequence (P01111 whole entry): as the sequence (P01111 whole entry G12C) above, with C12G counted along it
NRAS WT binding to BRAF RBD, sequence (P62937 whole entry): as the sequence (P62937 whole entry) above
NRAS Q61R binding to BRAF RBD, sequence (P01111 whole entry Q61R): as the sequence (P01111 whole entry G12C) above, with C12G, Q61R counted along it
NRAS Q61R binding to BRAF RBD, sequence (P62937 whole entry): as the sequence (P62937 whole entry) above
K-Ras G12C(GMP-PNP) binding to BRAF RBD, sequence (P01116 other isoform, or with tags, fused parts or gaps G12C): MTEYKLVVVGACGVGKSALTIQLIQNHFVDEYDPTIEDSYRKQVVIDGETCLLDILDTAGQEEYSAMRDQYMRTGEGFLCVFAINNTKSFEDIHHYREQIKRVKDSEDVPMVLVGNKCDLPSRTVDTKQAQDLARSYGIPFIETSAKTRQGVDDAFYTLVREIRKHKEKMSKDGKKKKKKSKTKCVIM
K-Ras G12C(GMP-PNP) binding to BRAF RBD, sequence (P62937 whole entry, canonical isoform): as the sequence (P62937 whole entry) above

The IC50 is the concentration that inhibits the measured activity by half. What is called EC50 is the concentration that produces a half-maximal response. As to `C=CC(=O)N1CC[C@H](C(=O)N(C)[C@H](C(=O)N[C@H]2CC3CN(CCO3)c3ccc4c(c3)c(c(-c3cccnc3[C@H](C)OC)n4CC)CC(C)(C)COC(=O)[C@@H]3CCCN(N3)C2=O)C(C)C)C1` [Compound A378], the IC50 in the data set with NCI-H358 (K-Ras G12C) is 100 to 1000 nM; in data set [1], above 10000 nM; in data set [2], above 10000 nM; in data set [3] it was 100 to 1000 nM; in data set [4], above 10000 nM; in data set [6], 1000 to 10000 nM. In data set [7], this compound displayed an IC50 above 10000 nM. In addition, the EC50 in [5] was below 5000 nM.

For `C=CC(=O)N(C)CCN1CCN(C(=O)N(C)[C@H](C(=O)N[C@H]2C[n+]3cccc(c3)-c3ccc4c(c3)c(c(-c3cccnc3[C@H](C)OC)n4CC)CC(C)(C)COC(=O)[C@@H]3CCCN(N3)C2=O)C(C)C)CC1` [Compound A539], the IC50 with NCI-H358 (K-Ras G12C) was in the range of 100 to 1000 nM; in [1] it was 100 to 1000 nM; in data set [8] it was 100 to 1000 nM; in [2], 100 to 1000 nM; in data set [3], 100 to 1000 nM; in data set [4] it was 1000 to 10000 nM. For the same compound, the IC50 in [6] and in [7] was 100 to 1000 nM in each case.

As to `C=CC(=O)N1CC[C@H](C(=O)C2CC[C@H](C)[C@H]2C(=O)N[C@H]2Cc3cccc(c3)-c3ccc4c(c3)c(c(-c3cccnc3[C@H](C)OC)n4CC)CC(C)(C)COC(=O)[C@@H]3CCCN(N3)C2=O)C1` (stereo partly shown) [Compound A494], the IC50 in data set [1] is 1000 to 10000 nM; in [2], 100 to 1000 nM; in data set [3], 100 to 1000 nM; in [4] it was above 10000 nM; in data set [6], 1000 to 10000 nM; in data set [7], 1000 to 10000 nM. Also, the EC50 in [5] was below 5000 nM.

As to `CCn1c(-c2cncnc2)c2c3cc(ccc31)-c1csc(n1)C[C@H](NC(=O)[C@H](C(C)C)N(C)C(=O)[C@H]1CCN(S(=O)(=O)CC)C1)C(=O)N1CCC[C@H](N1)C(=O)OCC(C)(C)C2` [Compound A170], the IC50 in the data set with NCI-H358 (K-Ras G12C) is 100 to 1000 nM; in data set [1] it was above 10000 nM; in data set [8], 1000 to 10000 nM; in [2], above 10000 nM; in data set [3] it was 1000 to 10000 nM; in data set [4], above 10000 nM. Further, the IC50 in data set [6] and in [7] was above 10000 nM each time.

For “benzyl 5-((6^3S,3S,4S,Z)-4-((tert-butoxycarbonyl) amino)-3-ethoxy-1^1-ethyl-10, 10-dimethyl-5,7-dioxo-6^1,6^2,6^3,6^4,6^5,6^6-hexahydro-1^1H-8-oxa-2 (4,2)-thiazola-1 (5,3)-indola-6 (1,3)-pyridazinacycloundecaphane-12-yl)-6-((S)-1-methoxyethyl)-3′, 6′-dihydro-[3,4′-bipyridine]-1′ (2′H)-carboxylate”, the ring closure, isolated yield in data set [9] (cc_pd bond, Pd(dtbpf)Cl2/K3PO4, toluene/1,4-dioxane/H2O 3:1:1, 40.7 mM, 70.0 °C) is 39%.

Consider “tert-butyl ((6^3S,4S,Z)-1^1-ethyl-1^2-(2-((S)-1-methoxyethyl) pyridin-3-yl)-21, 10, 10-trimethyl-5,7-dioxo-6^1,6^2,6^3,6^4,6^5,6^6-hexahydro-11H,21H-8-oxa-1 (5,3)-indola-6 (1,3)-pyridazina-2 (5,3)-triazolacycloundecaphane-4-yl) carbamate”, for which the ring closure, isolated yield in [9] (cc_pd bond, XPhos Pd G3/XPhos/K3PO4, dioxane/H2O 5:1, 71.7 mM, 75.0 °C) stood at 56.8%.

Consider “tert-butyl ((6^3S,3S,4S,Z)-3-ethoxy-1^1-ethyl-1^2-(2-((S)-1-methoxyethyl) pyridin-3-yl)-10, 10-dimethyl-5,7-dioxo-6^1,6^2,6^3,6^4,6^5,6^6-hexahydro-1^1H-8-oxa-2 (4,2)-thiazola-1 (5,3)-indola-6 (1,3)-pyridazinacycloundecaphane-4-yl) carbamate”, for which, in [9] (cc_pd bond, Pd(dtbpf)Cl2/K3PO4, toluene/dioxane/H2O, 26.7 mM, 60.0 °C), the ring closure, isolated yield is 31%.

“benzyl 4-(5-((3′S,3′S,4′S,Z)-4′-((tert-butoxycarbonyl) amino)-3′-ethoxy-1′-(2-isopropoxyethyl)-5′, 7′-dioxospiro[cyclopropane-1,10′-8-oxa-2 (4,2)-thiazola-1 (5,3)-indola-6 (1,3)-pyridazinacycloundecaphan]-2′-yl)-6-((S)-1-methoxyethyl) pyridin-3-yl) piperazine-1-carboxylate” came in with a ring closure, isolated yield in [9] (cc_pd bond, XPhos-Pd-G3/XPhos/K3PO4, toluene/1,4-dioxane/H2O 3:1:1, 28.0 mM, 65.0 °C) of 27%.

In data set [9] (cc_pd bond, Pd(dtbpf)Cl2/K3PO4, toluene/dioxane/H2O, 10.0 mM, 60.0 °C), “tert-butyl ((6^3S,3S,4S,Z)-3-(2,2-difluoroethoxy)-1^1-ethyl-1^2-(2-((S)-1-methoxyethyl) pyridin-3-yl)-10,10-dimethyl-5,7-dioxo-6^1,6^2,6^3,6^4,6^5,6^6-hexahydro-1^1H-8-oxa-2 (4,2)-thiazola-1 (5,3)-indola-6 (1,3)-pyridazinacycloundecaphane-4-yl) carbamate” displayed a ring closure, isolated yield of 59%.

“benzyl 4-(5-((6^3S,3S,4S,Z)-4-((tert-butoxycarbonyl) amino)-3-ethoxy-1^1-(2-isopropoxyethyl)-10,10-dimethyl-5,7-dioxo-6^1,6^2,6^3,6^4,6^5,6^6-hexahydro-1^1H-8-oxa-2 (4,2)-thiazola-1 (5,3)-indola-6 (1,3)- pyridazinacycloundecaphane-12-yl)-6-((S)-1-methoxyethyl) pyridin-3-yl) piperazine-1-carboxylate”: the ring closure, isolated yield in data set [9] (cc_pd bond, Pd(dtbpf)Cl2/K3PO4, toluene/1,4-dioxane/H2O 3:1:1, 16.0 mM, 65.0 °C) was determined as 44%.

With `C=C(C)C(=O)N1CC(N(C)C(=O)N(C)[C@H](C(=O)N[C@H]2Cc3nc(cs3)-c3ccc4c(c3)c(c(-c3cccnc3[C@H](C)OC)n4CC)CC(C)(C)COC(=O)[C@@H]3CCCN(N3)C2=O)C(C)C)C1` [Compound A359], the half-maximal inhibitory concentration (IC50) in data set [1], in data set [2], in [6] and in data set [7] was 1000 to 10000 nM throughout.

For the compound “tert-butyl ((6^3S,4S)-25-(difluoromethyl)-1^1-ethyl-1^2-(2-((S)-1-methoxyethyl) pyridin-3-yl)-10,10-dimethyl-5,7-dioxo-6^1,6^2,6^3,6^4,6^5,6^6-hexahydro-1^1H-8-oxa-1 (5,3)-indola-6 (1,3)-pyridazina-2 (1,3)-benzenacycloundecaphane-4-yl) carbamate”, the ring closure, isolated yield in data set [9] (ester bond, EDCI/HOBt/DIEA, DCM) amounted to 51%.

For the compound “(6^3S,3S,4S,Z)-4-(dibenzylamino)-1^1-ethyl-3-methoxy-1^2-(2-((S)-1-methoxyethyl) pyridin-3-yl)-10, 10-dimethyl-6^1,6^2,6^3,6^4,6^5,6^6-hexahydro-1^1H-8-oxa-2 (4,2)-thiazola-1 (5,3)-indola-6 (1,3)-pyridazinacycloundecaphane-5,7-dione”, the ring closure, isolated yield in [9] (cc_pd bond, Pd(DtBPF)Cl2/K3PO4, dioxane/H2O 5:1, 40.0 mM, 80.0 °C) amounted to 44.4%.

For the origin of these results see patent US20250195521A1 (Revolution Medicines, Inc., priority 2020, published 2025).
